Measurements from US11136311B2, “Heteroaromatic derivatives as NIK inhibitors” (Janssen Pharmaceutica NV, priority 2016, dated 2021).
Where two headings read alike, the source gives them in different places.

Columns and labels:
JJN-3 cells = assay: Antiproliferative activity on JJN-3 (NIK translocated) multiple myeloma cells (CellTiter-Glo); type: cell-based, human; conditions: read-out: JJN-3 Proliferation inhibition (IC50 (nM))
Procedure, shortened: (§1)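 Suspension myeloma cells in RPMI 1640 with 10% FCS, plated at 15000 (JJN-3) or 20000 (KMS12-BM) cells/well, were treated 96 hr with 9-point 1:3 compound dilutions at 0.3% DMSO. CellTiter-Glo luminescence, minus a time-zero blank, was expressed as % of untreated control growth.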

[1] = test system: P-IKKα levels in L363 cells; assay: Effect of compounds on P-IKKα levels in L363 (NIK translocated multiple myeloma) cells; type: cell-based, human
Procedure, shortened: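 L363 myeloma cells were primed 24 h with BAFF, then treated 2 h with compound (8-point, 1:3 dilutions, 1% DMSO) at 37°C. P-IKKα in lysates was measured by Mesoscale sandwich immunoassay, with the full-inhibition blank subtracted. IC50 came from a sigmoidal fit of % inhibition of control against log concentration.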

[2] = molecular target: recombinant human NF-kappaB-inducing kinase (NIK/MAP3K14) (Homo sapiens (Human), UniProt Q99558); assay: Inhibition of auto-phosphorylation of recombinant human NIK/MAP3K14 activity (AlphaScreen); type: biochemical; conditions: averaged values over all measurements on all batches
Procedure, shortened: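 GST-tagged NIK at 0.2 nM autophosphorylated for 1 h at 25° C with 25 microM ATP in Tris pH 7.5, MgCl2, 1% DMSO. Phospho-IKK Ser176/180 antibody with AlphaScreen beads detected product. IC50 came from sigmoidal fits of blank-corrected % inhibition.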

KMS12-BM cells = assay: Antiproliferative activity on KMS12-BM (NIK WT) multiple myeloma cells (CellTiter-Glo); type: cell-based, human; conditions: read-out: KMS-12 Proliferation inhibition (IC50 (nM))
Procedure, shortened: as §1

[3] = Homo sapiens, JJN-3, 96 h, JJN-3 (NIK translocated) cells, 96 hr, averaged values
[4] = Homo sapiens, L-363, L363 cells, averaged values, read-out: Inhibition of pIKKα_L-363 (IC50 (nM))
[5] = Homo sapiens, KMS-12-BM, 96 h, KMS12-BM (NIK WT) cells, 96 hr, averaged values

recombinant human NF-kappaB-inducing kinase (NIK/MAP3K14), sequence (Q99558 whole entry): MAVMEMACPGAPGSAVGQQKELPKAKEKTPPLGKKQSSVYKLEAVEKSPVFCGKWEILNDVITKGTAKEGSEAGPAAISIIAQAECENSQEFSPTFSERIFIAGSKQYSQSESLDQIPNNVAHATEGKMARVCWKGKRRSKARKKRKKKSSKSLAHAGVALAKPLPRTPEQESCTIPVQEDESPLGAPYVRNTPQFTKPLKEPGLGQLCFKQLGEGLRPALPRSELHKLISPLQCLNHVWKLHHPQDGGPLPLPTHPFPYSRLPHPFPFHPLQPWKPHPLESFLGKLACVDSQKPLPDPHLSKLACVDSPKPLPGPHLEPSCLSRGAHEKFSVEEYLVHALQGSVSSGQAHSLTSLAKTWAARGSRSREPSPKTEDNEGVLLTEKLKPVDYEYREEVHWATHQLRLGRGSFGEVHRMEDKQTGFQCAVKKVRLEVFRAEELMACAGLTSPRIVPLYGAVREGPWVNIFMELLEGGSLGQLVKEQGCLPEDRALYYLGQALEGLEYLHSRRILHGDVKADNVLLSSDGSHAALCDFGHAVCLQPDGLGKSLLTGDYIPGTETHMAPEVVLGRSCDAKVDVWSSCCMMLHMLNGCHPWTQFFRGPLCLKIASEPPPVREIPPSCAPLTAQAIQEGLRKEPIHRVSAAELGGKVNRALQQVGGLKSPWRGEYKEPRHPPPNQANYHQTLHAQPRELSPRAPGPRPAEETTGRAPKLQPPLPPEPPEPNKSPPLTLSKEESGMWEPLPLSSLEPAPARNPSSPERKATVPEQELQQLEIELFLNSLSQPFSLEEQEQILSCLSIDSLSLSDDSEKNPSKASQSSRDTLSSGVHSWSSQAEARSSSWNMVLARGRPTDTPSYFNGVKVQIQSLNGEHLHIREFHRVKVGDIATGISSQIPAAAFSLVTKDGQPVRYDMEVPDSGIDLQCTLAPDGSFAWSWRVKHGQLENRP

IC50 (JJN-3 cells; [3]) [nM]	IC50 [1, 4] [nM]	IC50 [2] [nM]	IC50 (KMS12-BM cells; [5]) [nM]	SMILES	IC50 (JJN-3 cells; Homo sapiens, JJN-3, 96 h) [nM]	IC50 ([1]; Homo sapiens, L-363, read-out: Inhibition of pIKKα_L-363 (IC50 (nM))) [nM]	IC50 (KMS12-BM cells; Homo sapiens, KMS-12-BM, 96 h) [nM]	IC50 (JJN-3 cells; JJN-3 (NIK translocated) cells, 96 hr, averaged values) [nM]	IC50 ([1]; L363 cells, averaged values, read-out: Inhibition of pIKKα_L-363 (IC50 (nM))) [nM]	IC50 (KMS12-BM cells; KMS12-BM (NIK WT) cells, 96 hr, averaged values) [nM]
158	1	4.9	> 10000	CNC(=O)c1cc(Nc2nccc(-c3cc(C#N)c4c(c3)[C@@](C)(CO)CN4)n2)nn1C1CCCC1 [Compound 195]	–	–	–	–	–	–
554	36	8.3	5250	CNC(=O)c1cc(Nc2nccc(-c3cc(C#N)c4c(c3)[C@@](C)(CO)CN4)n2)n(C2CCCC2)n1 [Compound 196]	–	–	–	–	–	–
204	4	2.1	~2240	CNC(=O)c1cc(Nc2nccc(-c3cc(C#N)c4c(c3)[C@@](C)(CO)CN4)n2)nn1CC(F)F [Compound 197]	–	–	–	–	–	–
112	20	6.8	> 10000	CNC(=O)c1cc(Nc2nccc(-c3cc(C#N)c4c(c3)[C@@](C)(CO)CN4)n2)n(CCC2CC2)n1 [Compound 198]	–	–	–	–	–	–
1900	25	3.5	> 10000	CCn1ncc(Nc2nccc(-c3cc(C#N)c4c(c3)[C@@](C)(CO)CN4)n2)c1N1CCOCC1 [Compound 199]	–	–	–	–	–	–
339	25	4	> 10000	Cn1cc(Nc2nccc(-c3cc(C#N)c4c(c3)[C@@](C)(CO)CN4)n2)c(OCCN2CCOCC2)n1 [Compound 203]	–	–	–	–	–	–
16	2	1.1	~6030	CC(C)c1nn(CC(F)F)cc1Nc1nccc(-c2cc(C#N)c3c(c2)[C@@](C)(CO)CN3)n1 [Compound 204]	–	–	–	–	–	–
5	1	2.2	~4900	C[C@]1(CO)CNc2c(C#N)cc(-c3ccnc(Nc4cn(CC(F)F)nc4C4CC4)n3)cc21 [Compound 205]	–	–	–	–	–	–
48	4	2	~4790	C[C@]1(CO)CNc2c(C#N)cc(-c3ccnc(Nc4cnn(CCN5CCOCC5)c4Cl)n3)cc21 [Compound 208]	–	–	–	–	–	–
1580	71	6.3	> 10000	CC(C)n1nc(C(=O)N2CCCC2)cc1Nc1nccc(-c2cc(C#N)c3c(c2)[C@@](C)(CO)CN3)n1 [Compound 210]	–	–	–	–	–	–
95	27	5.6	> 10000	C[C@]1(CO)CNc2c(C#N)cc(-c3ccnc(Nc4cc(C(=O)N5CCCC5)n(C5CCCC5)n4)n3)cc21 [Compound 213]	–	–	–	–	–	–
154	11	4.6	~7620	COCCOc1nn(CC(F)F)cc1Nc1nccc(-c2cc(C#N)c3c(c2)[C@@](C)(CO)CN3)n1 [Compound 217]	–	–	–	–	–	–
38	7	2.8	~7430	C[C@]1(CO)CNc2c(C#N)cc(-c3ccnc(Nc4cn(CC(F)F)nc4OC4CC4)n3)cc21 [Compound 218]	–	–	–	–	–	–
195	11	5.6	> 10000	C[C@]1(CO)CNc2c(C#N)cc(-c3cc(Nc4cn(CC(F)F)nc4C4CCOCC4)ncn3)cc21 [Compound 220]	–	–	–	–	–	–
2290	~105	14.8	> 10000	COC[C@H](O)Cn1ncc(Nc2nccc(-c3cc(C#N)c4c(c3)[C@@](C)(CO)CN4)n2)c1OC [Compound 221]	–	–	–	–	–	–

SMILES	IC50 (JJN-3 cells; [3]) [nM]	IC50 [1, 4] [nM]	IC50 [2] [nM]	IC50 (KMS12-BM cells; [5]) [nM]	IC50 (JJN-3 cells; Homo sapiens, JJN-3, 96 h) [nM]	IC50 ([1]; Homo sapiens, L-363, read-out: Inhibition of pIKKα_L-363 (IC50 (nM))) [nM]	IC50 (KMS12-BM cells; Homo sapiens, KMS-12-BM, 96 h) [nM]	IC50 (JJN-3 cells; JJN-3 (NIK translocated) cells, 96 hr, averaged values) [nM]	IC50 ([1]; L363 cells, averaged values, read-out: Inhibition of pIKKα_L-363 (IC50 (nM))) [nM]	IC50 (KMS12-BM cells; KMS12-BM (NIK WT) cells, 96 hr, averaged values) [nM]
C[C@]1(CO)CNc2c(C#N)cc(-c3ccnc(Nc4cnn(CCN5CC6COCC6C5)c4N4CCOCC4)n3)cc21 (some centres unmarked) [Compound 200]	–	–	5.9	–	3550	20	> 10000	–	–	–
CNC(=O)c1cc(Nc2nccc(-c3cc(C#N)c4c(c3)[C@@](C)(CO)CN4)n2)nn1CCC1CC1 [Compound 201]	–	–	3.4	–	–	–	–	100	2	> 10000
